Test results taken from ChEMBL document CHEMBL1133517, “Design, radiosynthesis, and biodistribution of a new potent and selective ligand for in vivo imaging of the adenosine A(2A) receptor system using positron emission tomography” (J Med Chem, 2000).

Legend:
Assay type in all cases: ADME, organism-based
[1] = species on record: Rattus norvegicus; assay: Biodistribution in rat thalamus after 15 min time interval; details: in vivo, 0.25 h
[2] = species on record: Rattus norvegicus; assay: Biodistribution in rat thalamus after 30 min time interval; details: in vivo, 0.5 h
[3] = species on record: Rattus norvegicus; assay: Biodistribution in rat thalamus after 5 min time interval; details: in vivo
[4] = species on record: Rattus norvegicus; assay: Biodistribution in rat thalamus after 60 min time interval; details: in vivo, 1 h
[5] = species on record: Rattus norvegicus; assay: Biodistribution in rat blood after 30 min time interval; details: in vivo, 0.5 h
[6] = species on record: Rattus norvegicus; assay: Biodistribution in rat blood after 60 min time interval; details: in vivo, 1 h
[7] = species on record: Rattus norvegicus; assay: Biodistribution in rat blood after 90 min time interval; details: in vivo, 1.5 h
[8] = species on record: Rattus norvegicus; assay: Biodistribution in rat thalamus after 90 min time interval; details: in vivo, 1.5 h
[9] = species on record: Rattus norvegicus; assay: Biodistribution in rat trachea after 15 min time interval; details: in vivo, 0.25 h
[10] = species on record: Rattus norvegicus; assay: Biodistribution in rat trachea after 30 min time interval; details: in vivo, 0.5 h
[11] = species on record: Rattus norvegicus; assay: Biodistribution in rat trachea after 5 min time interval; details: in vivo
[12] = species on record: Rattus norvegicus; assay: Biodistribution in rat trachea after 60 min time interval; details: in vivo, 1 h
[13] = species on record: Rattus norvegicus; assay: Biodistribution in rat hippocampus after 5 min time interval; details: in vivo
[14] = species on record: Rattus norvegicus; assay: Biodistribution in rat hippocampus after 60 min time interval; details: in vivo, 1 h
[15] = species on record: Rattus norvegicus; assay: Biodistribution in rat hippocampus after 90 min time interval; details: in vivo, 1.5 h
[16] = species on record: Rattus norvegicus; assay: Biodistribution in rat hypothalamus after 15 min time interval; details: in vivo, 0.25 h
[17] = species on record: Rattus norvegicus; assay: Biodistribution in rat hypothalamus after 30 min time interval; details: in vivo, 0.5 h
[18] = species on record: Rattus norvegicus; assay: Biodistribution in rat hypothalamus after 5 min time interval; details: in vivo
[19] = species on record: Rattus norvegicus; assay: Biodistribution in rat hypothalamus after 60 min time interval; details: in vivo, 1 h
[20] = species on record: Rattus norvegicus; assay: Biodistribution in rat hypothalamus after 90 min time interval; details: in vivo, 1.5 h
[21] = species on record: Rattus norvegicus; assay: Biodistribution in rat intestine after 15 min time interval; details: in vivo, 0.25 h
[22] = species on record: Rattus norvegicus; assay: Biodistribution in rat intestine after 30 min time interval; details: in vivo, 0.5 h
[23] = species on record: Rattus norvegicus; assay: Biodistribution in rat intestine after 60 min time interval; details: in vivo, 1 h
[24] = species on record: Rattus norvegicus; assay: Biodistribution in rat intestine after 90 min time interval; details: in vivo, 1.5 h
[25] = species on record: Rattus norvegicus; assay: Biodistribution in rat kidney after 15 min time interval; details: in vivo, 0.25 h
[26] = species on record: Rattus norvegicus; assay: Biodistribution in rat kidney after 30 min time interval; details: in vivo, 0.5 h
[27] = species on record: Rattus norvegicus; assay: Biodistribution in rat kidney after 5 min time interval; details: in vivo
[28] = species on record: Rattus norvegicus; assay: Biodistribution in rat anti-CTX after 30 min time interval; details: in vivo, 0.5 h
[29] = species on record: Rattus norvegicus; assay: Biodistribution in rat anti-CTX after 5 min time interval; details: in vivo
[30] = species on record: Rattus norvegicus; assay: Biodistribution in rat anti-CTX after 60 min time interval; details: in vivo, 1 h
[31] = species on record: Rattus norvegicus; assay: Biodistribution in rat anti-CTX after 90 min time interval; details: in vivo, 1.5 h
[32] = species on record: Rattus norvegicus; assay: Biodistribution in rat plasma after 5 min time interval; details: in vivo
[33] = species on record: Rattus norvegicus; assay: Biodistribution in rat plasma after 60 min time interval; details: in vivo, 1 h
[34] = species on record: Rattus norvegicus; assay: Biodistribution in rat plasma after 90 min time interval; details: in vivo, 1.5 h
[35] = species on record: Rattus norvegicus; assay: Biodistribution in rat pons after 30 min time interval; details: in vivo, 0.5 h
[36] = species on record: Rattus norvegicus; assay: Biodistribution in rat pons after 5 min time interval; details: in vivo
[37] = species on record: Rattus norvegicus; assay: Biodistribution in rat pons after 60 min time interval; details: in vivo, 1 h
[38] = species on record: Rattus norvegicus; assay: Biodistribution in rat pons after 90 min time interval; details: in vivo, 1.5 h
[39] = species on record: Rattus norvegicus; assay: Biodistribution in rat post-CTX after 15 min time interval; details: in vivo, 0.25 h
[40] = species on record: Rattus norvegicus; assay: Biodistribution in rat post-CTX after 30 min time interval; details: in vivo, 0.5 h
[41] = species on record: Rattus norvegicus; assay: Biodistribution in rat post-CTX after 5 min time interval; details: in vivo
[42] = species on record: Rattus norvegicus; assay: Biodistribution in rat post-CTX after 60 min time interval; details: in vivo, 1 h
[43] = species on record: Rattus norvegicus; assay: Biodistribution in rat post-CTX after 90 min time interval; details: in vivo, 1.5 h
[44] = species on record: Rattus norvegicus; assay: Biodistribution in rat spleen after 15 min time interval; details: in vivo, 0.25 h
[45] = species on record: Rattus norvegicus; assay: Biodistribution in rat spleen after 30 min time interval; details: in vivo, 0.5 h
[46] = species on record: Rattus norvegicus; assay: Biodistribution in rat spleen after 5 min time interval; details: in vivo
[47] = species on record: Rattus norvegicus; assay: Biodistribution in rat spleen after 60 min time interval; details: in vivo, 1 h
[48] = species on record: Rattus norvegicus; assay: Biodistribution in rat spleen after 90 min time interval; details: in vivo, 1.5 h
[49] = species on record: Rattus norvegicus; assay: Biodistribution in rat striatum after 30 min time interval; details: in vivo, 0.5 h
[50] = species on record: Rattus norvegicus; assay: Biodistribution in rat striatum after 5 min time interval; details: in vivo

[11CH3]Oc1ccc(CCCn2ncc3c2nc(N)n2nc(-c4ccco4)nc32)cc1
ID/g [1]: 0.1%
ID/g [2]: 0.05%
ID/g [3]: 0.2%
ID/g [4]: 0.02%
ID/g [5]: 0.06%
ID/g [6]: 0.03%
ID/g [7]: 0.05%
ID/g [8]: 0.02%
ID/g [9]: 0.12%
ID/g [10]: 0.09%
ID/g [11]: 0.17%
ID/g [12]: 0.04%
ID/g [13]: 0.17%
ID/g [14]: 0.02%
ID/g [15]: 0.02%
ID/g [16]: 0.07%
ID/g [17]: 0.04%
ID/g [18]: 0.16%
ID/g [19]: 0.02%
ID/g [20]: 0.02%
ID/g [21]: 0.28%
ID/g [22]: 0.25%
ID/g [23]: 0.1%
ID/g [24]: 0.16%
ID/g [25]: 0.49%
ID/g [26]: 0.24%
ID/g [27]: 0.69%
ID/g [28]: 0.06%
ID/g [29]: 0.18%
ID/g [30]: 0.02%
ID/g [31]: 0.02%
ID/g [32]: 0.19%
ID/g [33]: 0.07%
ID/g [34]: 0.07%
ID/g [35]: 0.06%
ID/g [36]: 0.2%
ID/g [37]: 0.02%
ID/g [38]: 0.02%
ID/g [39]: 0.1%
ID/g [40]: 0.05%
ID/g [41]: 0.19%
ID/g [42]: 0.02%
ID/g [43]: 0.02%
ID/g [44]: 0.12%
ID/g [45]: 0.07%
ID/g [46]: 0.18%
ID/g [47]: 0.06%
ID/g [48]: 0.05%
ID/g [49]: 0.2%
ID/g [50]: 0.43%
